In the supplement of paper PMC10307832:

What was measured:
Assay in all cases: relative viability (nuclei count vs DMSO), 5 days (fraction); higher = more cells survive
[1] = tested on: HCC-78
How it was run: (§1)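 Dosing by pin tool came one day after lung cancer cell lines were seeded in 1536-well plates, using either one drug or a fixed anchor-drug dose plus five library-drug doses (not always all listed) in √10 steps. After 5 days, nuclei were counted on 4× images. Relative viability is treated-well nuclei count divided by vehicle-well nuclei count, and values are medians of duplicate plates.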

[2] = tested on: LCLC-97TM1
How it was run: as §1

[3] = tested on: NCI-H2009
How it was run: as §1

[4] = tested on: NCI-H1993
How it was run: as §1

[5] = tested on: A-427
How it was run: as §1

[6] = tested on: ChaGo-K-1
How it was run: as §1

[7] = tested on: 201T
How it was run: as §1

[8] = tested on: SW 1573
How it was run: as §1

[9] = tested on: COR-L23
How it was run: as §1

[10] = tested on: NCI-H650
How it was run: as §1

[11] = tested on: NCI-H460
How it was run: as §1

[12] = tested on: NCI-H1650
How it was run: as §1

O=c1[nH]c2ccccc2n1C1CCN(CCCC(c2ccc(F)cc2)c2ccc(F)cc2)CC1 [Pimozide] + CC(=O)c1c(C)c2cnc(Nc3ccc(N4CCNCC4)cn3)nc2n(C2CCCC2)c1=O [Palbociclib] (partner 0.5 µM)
relative viability ([1]; first compound 0.08 µM): 0.514
relative viability ([1]; first compound 0.8 µM): 0.431
relative viability ([1]; first compound 2.53 µM): 0.421
relative viability ([1]; first compound 8 µM): 0.524
relative viability ([2]; first compound 0.08 µM): 0.203
relative viability ([2]; first compound 0.253 µM): 0.237
relative viability ([2]; first compound 0.8 µM): 0.203
relative viability ([2]; first compound 2.53 µM): 0.167
relative viability ([2]; first compound 8 µM): 0.251
relative viability ([3]; first compound 0.08 µM): 0.202
relative viability ([3]; first compound 0.253 µM): 0.307
relative viability ([3]; first compound 0.8 µM): 0.178
relative viability ([3]; first compound 2.53 µM): 0.226
relative viability ([3]; first compound 8 µM): 0.188
relative viability ([4]; first compound 0.08 µM): 0.616
relative viability ([4]; first compound 0.253 µM): 0.58
relative viability ([4]; first compound 0.8 µM): 0.653
relative viability ([4]; first compound 2.53 µM): 0.556
relative viability ([4]; first compound 8 µM): 0.558
relative viability ([5]; first compound 0.08 µM): 0.531
relative viability ([5]; first compound 0.253 µM): 0.57
relative viability ([5]; first compound 0.8 µM): 0.462
relative viability ([5]; first compound 2.53 µM): 0.457
relative viability ([5]; first compound 8 µM): 0.497
relative viability ([6]; first compound 0.08 µM): 0.918
relative viability ([6]; first compound 0.253 µM): 0.955
relative viability ([6]; first compound 0.8 µM): 0.9
relative viability ([6]; first compound 2.53 µM): 0.903
relative viability ([6]; first compound 8 µM): 0.9
relative viability ([7]; first compound 0.08 µM): 0.363
relative viability ([7]; first compound 0.253 µM): 0.356
relative viability ([7]; first compound 0.8 µM): 0.337
relative viability ([7]; first compound 2.53 µM): 0.314
relative viability ([7]; first compound 8 µM): 0.342
relative viability ([8]; first compound 0.08 µM): 0.422
relative viability ([8]; first compound 0.253 µM): 0.318
relative viability ([8]; first compound 0.8 µM): 0.249
relative viability ([8]; first compound 2.53 µM): 0.214
relative viability ([8]; first compound 8 µM): 0.146
relative viability ([9]; first compound 0.08 µM): 0.291
relative viability ([9]; first compound 0.253 µM): 0.346
relative viability ([9]; first compound 0.8 µM): 0.293
relative viability ([9]; first compound 2.53 µM): 0.267
relative viability ([9]; first compound 8 µM): 0.307
relative viability ([10]; first compound 0.08 µM): 0.396
relative viability ([10]; first compound 0.253 µM): 0.313
relative viability ([10]; first compound 0.8 µM): 0.331
relative viability ([10]; first compound 2.53 µM): 0.313
relative viability ([10]; first compound 8 µM): 0.291
relative viability ([11]; first compound 0.08 µM): 0.137
relative viability ([11]; first compound 0.253 µM): 0.188
relative viability ([11]; first compound 0.8 µM): 0.139
relative viability ([11]; first compound 2.53 µM): 0.221
relative viability ([11]; first compound 8 µM): 0.184
relative viability ([12]; first compound 0.08 µM): 0.287
relative viability ([12]; first compound 0.253 µM): 0.378
relative viability ([12]; first compound 0.8 µM): 0.265
